Reference: ChEMBL document CHEMBL1145292, “Synthesis and activity of novel bile-acid conjugated glucocorticoid receptor antagonists” (Bioorg Med Chem Lett, 2006)

Columns and labels:
Glucocorticoid receptor [1] = target: T1, Glucocorticoid receptor (Homo sapiens, UniProt P04150); assay: Activity at GR expressed in CHO cells assessed as decrease in dexamethasone-stimulated alkaline phosphatase production by GRAF assay; assay type: cell-based
T1 sequence (P04150 whole entry): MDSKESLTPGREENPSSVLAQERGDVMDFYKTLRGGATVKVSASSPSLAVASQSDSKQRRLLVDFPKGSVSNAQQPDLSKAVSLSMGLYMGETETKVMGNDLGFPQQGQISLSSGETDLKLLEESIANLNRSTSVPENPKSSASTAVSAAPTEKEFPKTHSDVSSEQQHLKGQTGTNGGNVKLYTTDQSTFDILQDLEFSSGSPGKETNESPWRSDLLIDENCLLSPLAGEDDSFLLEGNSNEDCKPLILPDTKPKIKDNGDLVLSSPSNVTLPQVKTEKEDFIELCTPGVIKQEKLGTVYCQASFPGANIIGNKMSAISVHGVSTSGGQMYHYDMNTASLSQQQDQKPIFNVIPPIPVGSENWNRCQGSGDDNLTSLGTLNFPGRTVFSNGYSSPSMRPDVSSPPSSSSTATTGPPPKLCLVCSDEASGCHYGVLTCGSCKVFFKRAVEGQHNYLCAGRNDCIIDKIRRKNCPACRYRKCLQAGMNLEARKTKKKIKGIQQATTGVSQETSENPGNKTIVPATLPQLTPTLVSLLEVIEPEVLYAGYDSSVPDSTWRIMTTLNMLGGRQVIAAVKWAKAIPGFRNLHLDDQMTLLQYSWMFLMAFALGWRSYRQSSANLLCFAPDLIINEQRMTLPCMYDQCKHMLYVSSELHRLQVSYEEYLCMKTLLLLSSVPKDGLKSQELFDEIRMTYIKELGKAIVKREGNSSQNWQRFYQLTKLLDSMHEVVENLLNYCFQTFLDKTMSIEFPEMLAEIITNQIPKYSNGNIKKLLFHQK

Rattus norvegicus [2] = assay: Inhibition of prednisilone-induced glycogen deposition in Sprague-Dawley rat at 100 mg/kg, po; assay type: functional
Rattus norvegicus [3] = assay: Inhibition of prednisilone-induced lymphopenia in Sprague-Dawley rat at 100 mg/kg, po; assay type: functional
Glucocorticoid receptor [4] = target: T1, Glucocorticoid receptor; assay: Binding affinity to human GR
Rattus norvegicus [5] = assay: Inhibition of prednisilone-stimulated TAT production in Sprague-Dawley rat at 100 mg/kg, po; assay type: functional
Rattus norvegicus [6] = assay: Liver concentration in Sprague-Dawley rat after 7 hrs at 100 mg/kg, po; assay type: ADME, organism-based; parameters: dose 100 mg/kg, route oral; details: in vivo
[7] = Stability in rat liver microsomes after 20 mins; assay type: ADME, Microsome; details: read-out: Stability
[8] = Protein binding in rat plasma; assay type: ADME, cell-free; details: read-out: PPB (converted)
[9] = Plasma concentration in Sprague-Dawley rat after 7 hrs at 100 mg/kg, po; assay type: ADME, organism-based; parameters: dose 100 mg/kg, route oral

IC50 (Glucocorticoid receptor [1]) | IC50 (Glucocorticoid receptor [4]) | remaining at 20 min [7] | Compound | inhibition in vivo at 100 mg/kg (Rattus norvegicus [2]) | inhibition in vivo at 100 mg/kg (Rattus norvegicus [3]) | inhibition in vivo at 100 mg/kg (Rattus norvegicus [5]) | Drug uptake (Rattus norvegicus [6]) | fraction unbound [8] | concentration at 7 h [9]
200 nM | 4.9 nM | – | CC#C[C@]1(O)CC[C@H]2[C@@H]3CCC4=CC(=O)CCC4=C3[C@@H](c3cc(C)c(OCCO[C@H]4CC[C@@]5(C)[C@@H](C4)C[C@@H](O)[C@@H]4[C@@H]5C[C@H](O)[C@]5(C)[C@@H]([C@H](C)CCC(=O)O)CC[C@@H]45)c(C)c3)C[C@@]21C | 12% | 0% | 0% | – | – | –
32 nM | 9 nM | – | CC#C[C@]1(O)CC[C@H]2[C@@H]3CCC4=CC(=O)CCC4=C3[C@@H](c3ccc(OC)cc3C)C[C@@]21C | – | – | – | – | – | –
10.1 nM | 0.7 nM | – | CC#C[C@]1(O)CC[C@H]2[C@@H]3CCC4=CC(=O)CCC4=C3[C@@H](c3c(F)cc(OC)cc3F)C[C@@]21C | – | – | – | – | – | –
1.8 nM | 0.6 nM | – | CC#C[C@]1(O)CC[C@H]2[C@@H]3CCC4=CC(=O)CCC4=C3[C@@H](c3ccc(SC)cc3)C[C@@]21C | – | – | – | – | – | –
7.6 nM | 0.9 nM | – | CC#C[C@]1(O)CC[C@H]2[C@@H]3CCC4=CC(=O)CCC4=C3[C@@H](c3ccc(OC)cc3)C[C@@]21C | – | – | – | – | – | –
– | 60.7 nM | – | CC#C[C@]1(O)CC[C@H]2[C@@H]3CCC4=CC(=O)CCC4=C3[C@@H](c3cc(OC)c(OC)c(OC)c3)C[C@@]21C | – | – | – | – | – | –
4.7 nM | 0.4 nM | – | C=CCOc1ccc([C@H]2C[C@@]3(C)[C@@H](CC[C@@]3(O)C#CC)[C@@H]3CCC4=CC(=O)CCC4=C32)cc1Cl | – | – | – | – | – | –
1.1 nM | 0.1 nM | 87% | CC#C[C@]1(O)CC[C@H]2[C@@H]3CCC4=CC(=O)CCC4=C3[C@@H](c3ccc(OC)c(C)c3)C[C@@]21C | – | 67% | 97% | 18.1% | – | 4.8 µM
20.9 nM | 1.5 nM | – | C=CCOc1c(C)cc([C@H]2C[C@@]3(C)[C@@H](CC[C@@]3(O)C#CC)[C@@H]3CCC4=CC(=O)CCC4=C32)cc1Cl | – | – | – | – | – | –
23.5 nM | 2.5 nM | 100% | CC#C[C@]1(O)CC[C@H]2[C@@H]3CCC4=CC(=O)CCC4=C3[C@@H](c3ccc(-c4ccc(OCCO[C@H]5CC[C@@]6(C)[C@@H](C5)C[C@@H](O)[C@@H]5[C@@H]6C[C@H](O)[C@]6(C)[C@@H]([C@H](C)CCC(=O)O)CC[C@@H]56)cc4)cc3)C[C@@]21C | 51% | 40% | 44% | – | – | –
2.8 nM | 0.4 nM | – | CC#C[C@]1(O)CC[C@H]2[C@@H]3CCC4=CC(=O)CCC4=C3[C@@H](c3cc(C)c(OC)c(C)c3)C[C@@]21C | – | – | – | – | – | –
4.2 nM | 0.7 nM | 96% | CC#C[C@]1(O)CC[C@H]2[C@@H]3CCC4=CC(=O)CCC4=C3[C@@H](c3ccc(-c4ccc(OC)cc4)cc3)C[C@@]21C | – | – | – | – | – | –
43 nM | 6.1 nM | – | CC#C[C@]1(O)CC[C@H]2[C@@H]3CCC4=CC(=O)CCC4=C3[C@@H](c3c(F)cc(OC)cc3OC)C[C@@]21C | – | – | – | – | – | –
15 nM | 3.2 nM | – | CC#C[C@]1(O)CC[C@H]2[C@@H]3CCC4=CC(=O)CCC4=C3[C@@H](c3cc(F)c(OC)cc3F)C[C@@]21C | – | – | – | – | – | –
28.6 nM | 4.5 nM | – | CC#C[C@]1(O)CC[C@H]2[C@@H]3CCC4=CC(=O)CCC4=C3[C@@H](c3ccc(O)c(C)c3)C[C@@]21C | – | – | – | – | – | –
– | – | 70% | CC#C[C@]1(O)CC[C@H]2[C@@H]3CCC4=CC(=O)CCC4=C3[C@@H](c3ccc(N(C)C)cc3)C[C@@]21C [MIFEPRISTONE] | 77% | 104% | 101% | 26.5% | 0.044 | 3.9 µM
– | 481 nM | – | CC#C[C@]1(O)CC[C@H]2[C@@H]3CCC4=CC(=O)CCC4=C3[C@@H](c3c(OC)cc(OC)cc3OC)C[C@@]21C | – | – | – | – | – | –

Compound | IC50 (Glucocorticoid receptor [1]) | IC50 (Glucocorticoid receptor [4]) | remaining at 20 min [7] | inhibition in vivo at 100 mg/kg (Rattus norvegicus [2]) | inhibition in vivo at 100 mg/kg (Rattus norvegicus [3]) | inhibition in vivo at 100 mg/kg (Rattus norvegicus [5]) | Drug uptake (Rattus norvegicus [6]) | fraction unbound [8] | concentration at 7 h [9]
CC#C[C@]1(O)CC[C@H]2[C@@H]3CCC4=CC(=O)CCC4=C3[C@@H](c3ccc(N(C)CCO[C@H]4CC[C@@]5(C)[C@@H](C4)C[C@@H](O)[C@@H]4[C@@H]5C[C@H](O)[C@]5(C)[C@@H]([C@H](C)CCC(=O)O)CC[C@@H]45)cc3)C[C@@]21C | 10 nM | 1.2 nM | 98% | 86% | 9% | 72% | 26.5% | 0.041 | 4.5 µM
CC#C[C@]1(O)CC[C@H]2[C@@H]3CCC4=CC(=O)CCC4=C3[C@@H](c3ccc(Oc4ccccc4)cc3)C[C@@]21C | 18.8 nM | 1.5 nM | – | – | – | – | – | – | –
CC#C[C@]1(O)CC[C@H]2[C@@H]3CCC4=CC(=O)CCC4=C3[C@@H](c3ccc(OCCO[C@H]4CC[C@@]5(C)[C@@H](C4)C[C@@H](O)[C@@H]4[C@@H]5C[C@H](O)[C@]5(C)[C@@H]([C@H](C)CCC(=O)O)CC[C@@H]45)c(C)c3)C[C@@]21C | 30.7 nM | 3.1 nM | 95% | 0% | 20% | 31% | 22.2% | 0.017 | 4.5 µM
